How the values were obtained:
MDM2-p53 = MDM2-p53 (Homo sapiens, UniProt Q00987); test: Inhibition of MDM2 binding to p53 using HTRF (Table 3); details: mean ± S.E.M. of three replications
Protocol: Test compounds were solubilized at 10 mM in DMSO and concentration series was added to the assay plate using the Echo 650 acoustic liquid handling system by direct dilution. The final amount of DMSO added to the assay was 100 nL (0.1%). Compounds were pre-incubated with 5 μL of GST-MDM2 for 15-30 min before 5 μL of HIS-p53/anti-HIS-d2 was added to the assay. After a 2 hr incubation, the HTRF signal was measured using the ClarioStar plate reader (BMG Labtech). […] IC50 values were determined from nonlinear regression fits of a data to a four parameter dose-response equation using XLFit (IDBS). Data are the means±S.E.M. of three replications.

VHL complex = molecular target: T1, VHL complex (Homo sapiens, UniProt P40337); test: Inhibition of HIF-1α peptide binding to the VHL complex using HTRF (Table 3); details: mean ± S.E.M. of three replications; read-out: VHL-HIFa peptide IC50
T1 construct: purchased R&D systems E3-655-025
Protocol: Assays contained 2 nM of HIS-VHL complex (R&D systems, E3-655-025), 2 nM of biotin-hydroxyproline-HIF1α peptide (Biotin-[…] (SEQ ID NO: 2), X=hydroxyproline), 0.3 nM anti-HIS-Tb HTRF donor antibody and 4 nM streptavidin-d2 HTRF acceptor (PerkinElmer) in a final volume of 10 μL of 25 mM HEPES, pH 7.4, 150 mM NaCl, 5 mM DTT, 0.005% Tween20 in white low volume 384-well plates. Both HIS-VHL complex and biotin-HIF1α peptide were pre-incubated with their respective HTRF antibodies for 15 min. Test compounds were solubilized at 10 mM in DMSO and concentration series was added to the assay plate using the Echo 650 acoustic liquid handling system by direct dilution. The final amount of DMSO added to the assay was 100 nL […]. Compounds were pre-incubated with HIS-VHL complex before the addition of the biotin-HIF1α peptide. After a 2 hr incubation, the HTRF signal was measured using the ClarioStar plate reader (BMG Labtech). […] IC50 values were determined from nonlinear regression fits of a data to a four parameter dose-response equation using XLFit (IDBS). Data are the means±S.E.M. of three replications. The data is described in Table 3 above.

[1] = test system: p53-null mouse sarcoma cells; test: Murine Mdm2+/+ p53-null sarcoma cells, Western blot and MTT; format: cell-based; details: increasing concentrations, MTT assay, 48 hrs
TAp73 = test: Western blotting for TAp73 in TNBC cell lines; format: cell-based, human; details: five TNBC cell lines
Protocol: FIGS. 28A-28L show TAp73 is activated by the MDM2-PROTAC YX-02-030 and mediates apoptosis of p53-inactivated TNBC cells. A-C, RNA-seq (triplicates) was performed on MDA-MB-231 cells treated with the MDM2-PROTAC YX-02-030 (6 μM, 16 hr) or DMSO vehicle control or expressing MDM2 shRNA or non-targeting control shRNA (48 hr). A, Pathway analysis using Hallmark gene signatures. B, Heatmap of p53 family target genes of individual samples (3 each). C, Spearman's correlation of differentially expressed p53 family target genes between PROTAC-treated relative to DMSO vehicle control and MDM2 shRNA relative to non-targeting shRNA control; Spearman's correlation coefficient (p) and P-value indicated. D, qRT-PCR analysis (triplicate, 6 μM, 16 hr) to validate RNA-seq results. […] I, ChIP for TAp73 was performed with MDA-MB-231 cells following treatment with the MDM2-PROTAC YX-02-030 (6 μM, 16 hr) or DMSO vehicle control, and enrichment of TAp73 (triplicate; first normalized to input DNA then IgG control) was determined at the loci indicated. J and K, After 48 hr, MDA-MB-231 cells expressing two independent TAp73 shRNA or non-targeting shRNA (shNT) control were treated with MDM2-PROTAC YX-02-030 or DMSO vehicle control (6 μM, 16 hr). p53/TAp73 target genes were evaluated by Western blotting (J) and qRT-PCR (K, triplicate). […]

Sequence of MDM2-p53 (Q00987 whole entry): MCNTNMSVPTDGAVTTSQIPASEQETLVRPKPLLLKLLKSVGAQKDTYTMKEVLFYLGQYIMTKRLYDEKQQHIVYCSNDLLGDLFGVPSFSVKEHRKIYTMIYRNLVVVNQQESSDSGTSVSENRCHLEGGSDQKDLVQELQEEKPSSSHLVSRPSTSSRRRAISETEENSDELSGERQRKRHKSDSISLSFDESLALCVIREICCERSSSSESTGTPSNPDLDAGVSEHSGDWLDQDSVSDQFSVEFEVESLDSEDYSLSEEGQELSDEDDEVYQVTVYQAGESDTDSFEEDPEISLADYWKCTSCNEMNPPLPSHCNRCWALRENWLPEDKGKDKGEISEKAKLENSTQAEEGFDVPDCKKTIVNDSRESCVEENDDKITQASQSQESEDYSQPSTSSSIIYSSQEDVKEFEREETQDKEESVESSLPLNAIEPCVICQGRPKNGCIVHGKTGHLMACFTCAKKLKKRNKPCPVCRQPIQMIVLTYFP
T1 sequence (P40337 whole entry): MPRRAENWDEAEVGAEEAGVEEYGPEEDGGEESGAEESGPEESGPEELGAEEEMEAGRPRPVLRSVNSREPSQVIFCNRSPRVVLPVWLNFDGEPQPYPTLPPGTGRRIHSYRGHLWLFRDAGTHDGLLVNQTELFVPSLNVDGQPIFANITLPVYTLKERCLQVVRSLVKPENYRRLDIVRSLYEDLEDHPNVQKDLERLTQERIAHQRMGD
T1 sequence (Q15370 whole entry partner): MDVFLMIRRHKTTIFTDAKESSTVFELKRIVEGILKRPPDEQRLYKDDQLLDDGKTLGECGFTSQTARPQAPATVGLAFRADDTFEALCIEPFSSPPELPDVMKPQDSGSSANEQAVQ
T1 sequence (Q15369 whole entry partner): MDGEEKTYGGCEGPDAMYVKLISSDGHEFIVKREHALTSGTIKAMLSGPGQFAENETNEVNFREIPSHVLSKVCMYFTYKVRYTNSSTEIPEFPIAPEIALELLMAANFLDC
T1 sequence (Q13617 whole entry partner): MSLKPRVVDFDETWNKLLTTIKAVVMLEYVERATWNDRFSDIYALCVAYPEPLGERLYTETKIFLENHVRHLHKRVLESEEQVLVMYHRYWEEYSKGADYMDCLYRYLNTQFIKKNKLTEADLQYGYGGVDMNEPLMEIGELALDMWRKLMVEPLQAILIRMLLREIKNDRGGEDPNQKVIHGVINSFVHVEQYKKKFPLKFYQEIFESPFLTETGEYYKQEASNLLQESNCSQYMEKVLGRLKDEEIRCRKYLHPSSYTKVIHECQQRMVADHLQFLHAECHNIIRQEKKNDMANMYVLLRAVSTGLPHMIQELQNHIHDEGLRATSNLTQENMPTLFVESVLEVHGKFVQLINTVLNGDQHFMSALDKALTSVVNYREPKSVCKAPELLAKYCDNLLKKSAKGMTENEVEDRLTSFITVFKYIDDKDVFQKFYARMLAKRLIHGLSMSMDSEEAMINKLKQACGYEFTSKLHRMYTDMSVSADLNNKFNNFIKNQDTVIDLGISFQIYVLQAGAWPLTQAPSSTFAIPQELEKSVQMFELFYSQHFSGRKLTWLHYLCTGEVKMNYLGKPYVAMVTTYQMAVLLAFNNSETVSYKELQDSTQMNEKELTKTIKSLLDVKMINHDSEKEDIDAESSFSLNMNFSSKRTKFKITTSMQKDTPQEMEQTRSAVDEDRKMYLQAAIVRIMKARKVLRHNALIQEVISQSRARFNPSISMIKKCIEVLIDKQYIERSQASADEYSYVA
T1 sequence (P62877 whole entry partner): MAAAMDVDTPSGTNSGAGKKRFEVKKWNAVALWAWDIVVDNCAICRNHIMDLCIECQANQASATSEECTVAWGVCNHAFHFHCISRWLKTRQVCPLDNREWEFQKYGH

SMILES	IC50 (MDM2-p53)	IC50 (VHL complex)	killing of p53-null sarcoma cells [1]	TAp73 protein level (TAp73)
CCOc1cc(C(C)(C)C)ccc1C1=N[C@@](C)(c2ccc(Cl)cc2)[C@@](C)(c2ccc(Cl)cc2)N1C(=O)N1CCN(CC(=O)O)CC1 (racemic) [YX-02-023, 2-(4-((4S,5R)-2-(4-(tert-butyl)-2-ethoxyphenyl)-4,5-bis(4-chlorophenyl)-4,5-dimethyl-4,5-dihydro-1H-imidazole-1-carbonyl)piperazin-1-yl)acetic acid]	11 ± 1.3 nM	> 10000 nM	not	–
CCOc1cc(C(C)(C)C)ccc1C1=NC(C)(c2ccc(Cl)cc2)C(C)(c2ccc(Cl)cc2)N1C(=O)N1CCN(CC(=O)NCCOCCOCCOCC(=O)N[C@H](C(=O)N2C[C@H](O)C[C@H]2C(=O)NCc2ccc(-c3scnc3C)cc2)C(C)(C)C)CC1 (stereo in doubt) [YX-02-030, (2S,4R)-1-((S)-2-(tert-butyl)-17-(4-((4S,5R)-2-(4-(tert-butyl)-2-ethoxyphenyl)-4,5-bis(4-chlorophenyl)-4,5-dimethyl-4,5-dihydro-1H-imidazole-1-carbonyl)piperazin-1-yl)-4,16-dioxo-6,9,12-trioxa-3,15-diazaheptadecanoyl)-4-hydroxy-N-(4-(4-methylthiazol-5-yl)benzyl)pyrrolidine-2-carboxamide]	–	–	–	levels of TAp73 protein increased
